According to publication PMC8704606, “The Artemiside-Artemisox-Artemisone-M1 Tetrad: Efficacies against Blood Stage P. falciparum Parasites, DMPK Properties, and the Case for Artemiside” (Pharmaceutics, 2021):
Read-outs that look alike come from different tables or passages of the source.

Columns and labels:
[1] = tested on: fetal rat brain stem cells; conditions: ref S4 (24), cited from earlier work; for Viability NOEC: neuron-specific enolase activity, 7 days exposure
[2] = design: method as in PMID 18559649; conditions: clinical Phase I trial, subject plasma samples; cited from earlier work
[3] = tested on: W2 (CQ resistant); design: method as in ref S2; conditions: [3H]-hypoxanthine assay; ref S2; read-out: Antimalarial activities IC50 W2; cited from earlier work
[4] = single dose 10 mg/kg, healthy Aotus monkeys; cited from earlier work
[5] = tested on: 7G8 (CQ resistant); design: method as in ref S2; conditions: [3H]-hypoxanthine assay; ref S2; read-out: Antimalarial activities IC50 7G8; cited from earlier work
[6] = tested on: TM91-C235 (CQ and MFQ resistant); design: method as in ref S2; conditions: [3H]-hypoxanthine assay; ref S2; read-out: Antimalarial activities IC50 TM91-C235; cited from earlier work
[7] = tested on: early-stage (EG) Pf NF54 gametocytes; experiment: Luciferase assay, early-stage gametocytes; assay type: cell-based, Plasmodium falciparum; conditions: early-stage gametocytes >95% stages II-III, 48 h incubation, ± SEM
Description: For screening artemisox and M1 against early- (EG) and late-stage (LG) gametocytes, the luciferase assay with transgenic NF54-pfs16-GFP-Luc and NF54-Mal8p1.16-GFP-Luc parasite lines was used. With this assay, stage-specificity of gametocytocidal action was established (Table 2). Dose-response curves are in Figures S1d,e and S2d in the Supplementary Material 1. […] As was observed previously for artemisone and artemiside, dose responses for artemisox and M1 could not be obtained at 48 h against late-stage gametocytes.
The same reference compounds with the exception of CQ were used for the early- and late-stage gametocyte assays. Gametocytocidal activity was determined using the transgenic NF54-pfs16-GFP-Luc and NF54-Mal8p1.16-GFP-Luc reporter lines. Compounds were initially screened for activity at a fixed drug concentration of 1 µM, with dose responses subsequently determined using 2-fold serial drug dilutions for 48 h against early-stage gametocytes (day 5 post-induction population, ≥95% stages II–III) and 10-fold serial drug dilutions for 48 h or 72 h against late-stage gametocytes (day 10 post-induction population, ≥90% late-stage [stages IV–V]) (2 to 3% gametocytemia, 2% hematocrit) at 37 °C under 90% N2, 5% CO2, and 5% O2 [6]. No drug washout steps were performed during the drug incubation periods prior to the assays. In all cases, an interference assay was run in parallel to eliminate the possibility of false positives arising through compound interference with the luciferase readout.

[8] = tested on: asexual blood stages of Pf K1 (drug resistant); experiment: SYBR Green I proliferation assay, asexual blood stages, Pf K1; assay type: cell-based, Plasmodium falciparum
Description: (§1) Dose response curves are in Figures S1a–c and S2a–c in the Supplementary Material 1. Table 1 also includes the historical values for artemiside and artemisone obtained using the same assay.
(§2) All other assay conditions are as previously described. Compound working solutions were prepared from a 10 mM stock solution in 100% (vol/vol) dimethyl sulfoxide (DMSO, Sigma-Aldrich) in supplemented RPMI 1640 medium containing AlbuMAX II with a final DMSO concentration of 0.1% (vol/vol), previously determined to be nontoxic to blood stage asexual parasites and gametocytes. The dose-responses of the amino-artemisinins were assayed using a 2-fold serial drug dilution on in vitro 95% ring-stage parasites at 37 °C under 90% N2, 5% CO2, and 5% O2 atmospheric conditions, detecting SYBR green I fluorescence as the proliferative marker following a 96 h drug treatment (1% parasitemia and 1% hematocrit) using a GloMaxR-Multi+ Detection System (Promega). No drug washout steps were performed during drug incubation periods prior to the assays. Activity against the Pf drug-sensitive NF54 strain and the drug-resistant K1 (resistant to CQ, quinine, pyrimethamine, and cycloguanil) and W2 (resistant to CQ, quinine, pyrimethamine, and cycloguanil) strains was evaluated. Data analysis was performed using GraphPad Prism (version 6), intra-assay variability was monitored with Z-factors, and acceptable interassay reproducibility was determined from the percent coefficient of variation (CV).

[9] = tested on: asexual blood stages of Pf W2 (drug resistant); experiment: SYBR Green I proliferation assay, asexual blood stages, Pf W2; assay type: cell-based, Plasmodium falciparum
Description: as §1, §2

[10] = ATP levels 1 day after initial administration

C[C@H]1[C@H](N2CCSCC2)O[C@@H]2O[C@@]3(C)CC[C@H]4[C@H](C)CC[C@@H]1[C@@]24OO3 [Artemiside 5, Artemiside]
ATP IC50 [1, 10]: 8.5 µg/mL
ATP NOEC [1, 10]: 1.0 µg/mL
ATP NOEC ([1]; ATP levels 1 day after initial administration, listed as artemiside): 1 µg/mL
Viability NOEC [1]: 1.0 µg/mL
Viability NOEC ([1]; listed as artemiside): 1 µg/mL

C[C@H]1[C@H](N2CCS(=O)(=O)CC2)O[C@@H]2O[C@@]3(C)CC[C@H]4[C@H](C)CC[C@@H]1[C@@]24OO3 [Artemisone 7, Artemisone]
fold higher ex vivo antimalarial activity at Tmax than corresponds to plasma concentration by LC-MS/MS [2]: 2.3 fold
IC50 [3]: 1.3 ± 0.5 nM
ex vivo antimalarial activity observable up to (post dose) [4]: up to 7 h
IC50 [5]: 0.8 ± 0.1 nM
IC50 [6]: 1.1 ± 0.5 nM

C[C@H]1[C@H](N2CC[S+]([O-])CC2)O[C@@H]2O[C@@]3(C)CC[C@H]4[C@H](C)CC[C@@H]1[C@@]24OO3 [Artemisox 6, Artemisox]
IC50 ([7]; Plasmodium falciparum, NF54, 48 h): 18.9 nM
IC50 [7]: 18.9 ± 0.98 nM
RI (resistance index) = IC50 K1/IC50 NF54 [8]: 0.8
IC50 ([8]; Plasmodium falciparum, asexual blood stage Pf K1, multidrug resistant, SYBR Green I, 96 h, ± SEM): 1.5 ± 0.5 nM
RI ratios ([8]; multidrug resistant K1 and W2 vs NF54): < 1
RI = IC50 W2/IC50 NF54 [9]: 0.7
IC50 ([9]; Plasmodium falciparum, asexual blood stage Pf W2, multidrug resistant, SYBR Green I, 96 h, ± SEM): 1.5 ± 0.4 nM
